In patent publication US20120016010A1, “RNA Interference Mediated Inhibition of BTB and CNC Homology 1, Basic Leucine Zipper Transcription Factor 1 (BACH1) Gene Expression Using Short Interfering Nucleic Acid (siNA)” (Merck Sharp & Dohme Corp, priority 2009, published 2012):
[invAb] = inverted abasic unit; d = 2'-deoxy (DNA); m = 2'-O-methyl; r = 2'-OH (RNA); f = 2'-fluoro

Key:
Bach1 mRNA [1] = assay: Initial screen: Bach1 mRNA knock-down in human A549 cells (96-well transfection, quantitative RT-PCR); format: cell-based; conditions: Bach1 mRNA, 10 nM siNA, human A549 cells, n = 2, mean ± S.D., normalized to GAPDH and non-targeting control, 24 hrs post-transfection
Method: (§1) All cells were obtained from ATCC (Manassas, Va.) unless otherwise indicated. Cells were grown and transfected under standard conditions, which are detailed below for each cell line.
(§2) Cells were plated in all wells of a tissue-culture treated, 96-well plate at a final count of 5000 cells/well in 100 μL of the appropriate culture media. The cells were cultured for 24 hours after plating at 37° C. in the presence of 5% CO2.
(§3) After 24 hours, complexes containing siNA and RNAiMax were created as follows: A solution of RNAiMax diluted 33-fold in OPTI-MEM was prepared. […] After incubation of RNAiMax/OPTI-MEM solution at room temperature for 5 min, an equal volume of the siNA solution and the RNAiMax solution were added together for each of the siNAs.
(§4) This solution was incubated at room temperature for 20 minutes. After incubation, 20 uL of the solution was added to each of the relevant wells. The final concentration of siNA in each well was 10 nM and the final volume of RNAiMax in each well was 0.3 ul. […]
(§5) Briefly, a 60 uL (1 plate) or 110 uL (2 plates) of the Lysis Solution with DNase I was dispensed into each well of the Lysis Buffer Plate (twin.tec full skirt plate). The lysis buffer and stop plates were stored at 4° C. until the cells were washed.
(§6) The plate was spun at 1100 rpm for 5 minutes. The culture medium was aspirated and discarded from the wells of the culture plate. The lysis was performed automatically using a BioMek FX instrument and method. After the Biomek method was completed, the lysis plate was incubated for 2 min at room temperature. The lysis plate can be stored for 2 hours at 4° C., or at −20° C. or −80° C. for two months.
(§7) Each well of the reverse transcription plate required 10 uL of 2× reverse transcriptase Buffer, 1 uL of 20× reverse transcription enzyme and 2 uL of nuclease-free water. The reverse transcription master mix was prepared by mixing 2× reverse transcription buffer, 20× reverse transcription enzyme mix, and nuclease-free water. 13 uL of the reverse transcription master mix was dispensed into each well of the reverse transcription plate (semi-skirted). A separate reverse transcription plate was prepared for each cell plate. The plate was loaded onto a Biomek NX or Biomek FX Dual −96 and the Biomek method was run. The program is programmed to automatically added 7 uL of lysate from the cell lysis procedure described above into each well of the reverse transcription plate. The plate is sealed and spun on a centrifuge (1000 rpm for 30 seconds) to settle the contents to the bottom of the reverse transcription plate. The plate is placed in a thermocycler at 37° C. for 60 min, 95° C. for 5 min, and 4° C. until the plate is removed from the thermocycler. Upon removal, if not used immediately, the plate was frozen at −20° C.
(§8) A series of probes and primers were used to detect the various mRNA transcripts of the genes of Bach1, HMOX-1, and GAPDH in mouse and human cell lines. The assays were performed on an ABI 7900 instrument, according to the manufacturer's instructions. […] The PCR reactions were carried out at 50° C. for 2 min, 95° C. for 20 min followed by 40 cycles at 95° C. for 15 secs and 60° C. for 1 min
(§9) Within each experiment, the […] was set in the exponential phase of the amplification curve, and based on the intersection point of the baselines with the amplification curve, a Ct value was assigned by the instrument.
(§10) The expression level of the gene of interest and % knock-down was calculated using Comparative Ct method:
(§11) ΔCt=ΔCt(Target siRNA)−ΔCt(NTC)
(§12) Relative expression level=2^−ΔΔCt
(§13) The non-targeting control siNA was, unless otherwise indicated, chosen as the value against which to calculate the % knock-down, because it is the most relevant control.

Bach1 mRNA [2] = assay: Initial screen: Bach1 mRNA knock-down in mouse NIH 3T3 cells (96-well transfection, quantitative RT-PCR); format: cell-based; conditions: mouse NIH3T3 cells, n = 2, 24 hrs post-transfection, protocol 10 nM siNA
Method: as §1, §2, §3, §4, §5, §6, §7, §8, §9, §10, §11, §12, §13

| Substance | % KD (Bach1 mRNA [1]) [%] | % KD (Bach1 mRNA [2]) [%] |
| --- | --- | --- |
| 29962-DC: Bach1 siNA duplex, target site 1240; sense B cAGGGAAGAuAGuAGuGuu TTB (SEQ 73); antisense AACAcuAcuAucuucccuGUU (SEQ 74) (sense CAGGGAAGAUAGUAGUGUUTT; antisense AACACUACUAUCUUCCCUGUU; sense: DNA at AGT, 2'-fluoro at CU, [invAb] at 5' end, 3' end, backbone not given here; antisense: sugars from the 5' end rrrmffmffmffffffffmmm, backbone not given here) | 88 ± 0.7 | 21.3 ± 2.2 |
| 29963-DC: Bach1 siNA duplex, target site 362; sense B GGAuuuGAAccuuuAAuuc TTB (SEQ 75); antisense GAAuuAAAGGuucAAAuccUU (SEQ 76) (sense GGAUUUGAACCUUUAAUUCTT; antisense GAAUUAAAGGUUCAAAUCCUU; sense: DNA at AGT, 2'-fluoro at CU, [invAb] at 5' end, 3' end, backbone not given here; antisense: sugars from the 5' end rrrffmmmmmfffmmmfffmm, backbone not given here) | 32.9 ± 3.4 | 18.5 ± 2.2 |
| 29965-DC: Bach1 siNA duplex, target site 596; sense B GAccAGAGGGAucuAGAAA TTB (SEQ 79); antisense UUUcuAGAucccucuGGucUU (SEQ 80) (sense GACCAGAGGGAUCUAGAAATT; antisense UUUCUAGAUCCCUCUGGUCUU; sense: sugars from the 5' end d2 f2 d7 f3 d7, [invAb] at 5' end, 3' end, backbone not given here; antisense: sugars from the 5' end rrrffmmmfffffffmmffmm, backbone not given here) | 34.4 ± 3.6 | 4.8 ± 6.3 |
| 29966-DC: Bach1 siNA duplex, target site 1375; sense B GGccAAAGAuGGcucAGAA TTB (SEQ 81); antisense UUCuGAGccAucuuuGGccUU (SEQ 82) (sense GGCCAAAGAUGGCUCAGAATT; antisense UUCUGAGCCAUCUUUGGCCUU; sense: DNA at AGT, 2'-fluoro at CU, [invAb] at 5' end, 3' end, backbone not given here; antisense: sugars from the 5' end rrrfmmmffmfffffmmffmm, backbone not given here) | 57.3 ± 5.9 | −12.7 ± 7.4 |
| 29967-DC: Bach1 siNA duplex, target site 494 (mouse); sense B GAGuuucuAAGcGuAcAcA TTB (SEQ 83); antisense UGUGuAcGcuuAGAAAcucUU (SEQ 84) (sense GAGUUUCUAAGCGUACACATT; antisense UGUGUACGCUUAGAAACUCUU; sense: DNA at AGT, 2'-fluoro at CU, [invAb] at 5' end, 3' end, backbone not given here; antisense: sugars from the 5' end rrrmfmfmfffmmmmmfffmm, backbone not given here) | 34.6 ± 6.7 | 34.7 ± 8.4 |
| 29968-DC: Bach1 siNA duplex, target site 671 (mouse); sense B GcAGAuGAAuucuuGGAAA TTB (SEQ 85); antisense UUUccAAGAAuucAucuGcUU (SEQ 86) (sense GCAGAUGAAUUCUUGGAAATT; antisense UUUCCAAGAAUUCAUCUGCUU; sense: DNA at AGT, 2'-fluoro at CU, [invAb] at 5' end, 3' end, backbone not given here; antisense: sugars from the 5' end rrrffmmmmmfffmfffmfmm, backbone not given here) | 28.2 ± 3.7 | 71 ± 8.7 |
| 29969-DC: Bach1 siNA duplex, target site 1790 (mouse); sense B GAuuuccAAuccuuGuuGA TTB (SEQ 87); antisense UCAAcAAGGAuuGGAAAucUU (SEQ 88) (sense GAUUUCCAAUCCUUGUUGATT; antisense UCAACAAGGAUUGGAAAUCUU; sense: DNA at AGT, 2'-fluoro at CU, [invAb] at 5' end, 3' end, backbone not given here; antisense: sugars from the 5' end rrrmfmmmmmffmmmmmffmm, backbone not given here) | 36 ± 7.3 | 72.7 ± 4.5 |
| 29970-DC: Bach1 siNA duplex, target site 1472 (mouse); sense B GAGuGucccuGGuuGGGuA TTB (SEQ 89); antisense UACccAAccAGGGAcAcucUU (SEQ 90) (sense GAGUGUCCCUGGUUGGGUATT; antisense UACCCAACCAGGGACACUCUU; sense: DNA at AGT, 2'-fluoro at CU, [invAb] at 5' end, 3' end, backbone not given here; antisense: sugars from the 5' end rrrffmmffmmmmmfmfffmm, backbone not given here) | 46.8 ± 5.1 | 69.4 ± 4.8 |
| 29971-DC: Bach1 siNA duplex, target site 2488 (mouse); sense B GuAGcuuucuGuuGAGGGA TTB (SEQ 91); antisense UCCcucAAcAGAAAGcuAcUU (SEQ 92) (sense GUAGCUUUCUGUUGAGGGATT; antisense UCCCUCAACAGAAAGCUACUU; sense: sugars from the 5' end rfddffffffdffdddddddd, [invAb] at 5' end, 3' end, backbone not given here; antisense: sugars from the 5' end rrrfffmmfmmmmmmffmfmm, backbone not given here) | 23.9 ± 3.8 | 75 ± 4.7 |
| 29972-DC: Bach1 siNA duplex, target site 1262 (mouse); sense B GAuuuAuAucuGAAGucuA TTB (SEQ 93); antisense UAGAcuucAGAuAuAAAucUU (SEQ 94) (sense GAUUUAUAUCUGAAGUCUATT; antisense UAGACUUCAGAUAUAAAUCUU; sense: DNA at AGT, 2'-fluoro at CU, [invAb] at 5' end, 3' end, backbone not given here; antisense: sugars from the 5' end rrrmffffmmmfmfmmmffmm, backbone not given here) | −3.3 ± 27.4 | 71.7 ± 5.5 |
| 29973-DC: Bach1 siNA duplex, target site 1780 (mouse); sense B cucAcGAAAuGAuuuccAA TTB (SEQ 95); antisense UUGGAAAucAuuucGuGAGUU (SEQ 96) (sense CUCACGAAAUGAUUUCCAATT; antisense UUGGAAAUCAUUUCGUGAGUU; sense: DNA at AGT, 2'-fluoro at CU, [invAb] at 5' end, 3' end, backbone not given here; antisense: sugars from the 5' end rrrmmmmffmffffmfmmmmm, backbone not given here) | −8 ± 11.1 | 76.4 ± 5.3 |
